Source: patent publication EP4721737A1, “USE OF PHARMACEUTICAL COMPOSITION COMPRISING COMPOUND HAVING BIS(AZANYLYLIDENE) SULFONYL STRUCTURE FOR TREATING ANEMIA-RELATED DISEASES” (Scinnohub Pharmaceutical Co., Ltd., priority 2023, dated 2024)

Legend:
[1] = molecular target: recombinant human PKR (Homo sapiens, UniProt P30613); assay: pyruvate kinase (PKR) activity test, activation of recombinant enzyme (fluorescence kit); format: biochemical
Procedure: To test the activation effect of the compound of the present disclosure on recombinant human PKR.
3.1 A recombinant human PKR enzyme solution was prepared at a concentration of 60 ng/well (a 20 µL reaction system), and 5 µL of the solution was added into each well of a black transparent bottom 384-well plate.
3.2 Compound solutions were prepared at different concentrations, with the final concentrations of 1000/300/100 nM (containing 1% DMSO). Each 5 µL of the compound solution was added into the plate in step 3.1 and mixed well. The plate was incubated at room temperature for 10 min.
3.3 A reaction system was prepared according to the instructions of a kit (as shown in the table below), and 10 µL of the reaction system was added into each well of the 384-well plate, and mixed uniformly with the solution in step 3.2.
3.4 The 384-well plate was placed on a microplate reader to detect the fluorescence value at 540/590 nm, where the value was read every 2 minutes and the detection was conducted continuously for 1 hour.
3.5 The Slope value within the detection time was calculated, and the 1% DMSO well was used as a control well to calculate a compound activation rate. Activation rate % = (Slopeofcompoundwell/Slopeofcontrolwell) × 100% [formula]
With the log value of the compound concentration as the X axis and the percentage activation rate as the Y axis, a dose-effect curve was fitted with the log(agonist) vs. response-variable slope of the analysis software GraphPad Prism 5, and the AC50 value of the activity of each compound against PKR was obtained. Y = min + (max−min)/(1+10^(∧)((LogAC50−X)×Hillslope)). [formula]

[2] = molecular target: T1, PKR in ex vivo red blood cells from healthy individuals (Homo sapiens, UniProt P30613); assay: ex vivo pyruvate kinase (PKR) activity experiment, red blood cells of healthy individuals; format: cell-based; settings: 3 hours co-cultivation
T1 construct: endogenous in cells; host or cells: human red blood cells isolated from fresh peripheral blood of healthy individuals
Procedure: To test the effects of the compound of the present disclosure on PKR activation in ex vivo red blood cells from healthy individuals and patients with thalassemia.
• i. 5 g of glucose, 85 mg of adenine, and 2.625 g of mannitol were weighed and added into a 50 mL centrifuge tube. 40 mL of PBS was added to dissolve (sonicate for 30 minutes until completely dissolved). The solution was filtered through a 0.22 µm filter, then added to 460 mL of sterile PBS and mixed thoroughly.
• i. Fresh human peripheral blood was collected. K2EDTA was used as the anticoagulant. 1 part anticoagulant with 9 parts blood was mixed, then centrifuged at 500 g for 10 minutes at room temperature to remove the plasma. • ii. Packed red blood cells: 1.5 volumes of PBS were added, then centrifuged at 2000 ×g for 5 minutes at room temperature. After centrifugation, the supernatant was removed. This step was repeated twice. • iii. Diluted red blood cells: 1.5 volumes of PBS were added, then resuspended and mixed thoroughly. • iv. The diluted red blood cells were slowly added to 0.5 volume of 70% isotonic solution (e.g., 7.5 mL of diluted red blood cells + 3 mL of 70% isotonic solution Percoll) and centrifuged at 4000 ×g for 20 minutes at 4°C. • v. The supernatant was removed. The red blood cells at the bottom were washed once with 4-5 mL of PBS to elute the Percoll gel, and then centrifuged at 2000 ×g for 5 minutes at room temperature. • vi. The supernatant was removed. The red blood cells were counted and then diluted in AGAM medium containing 10% FBS to a density of 2 × 10^8 cells/mL for storage at 4°C.
i. The red blood cells were seeded into a 96-well plate at a uniform density of 1 × 10^7 cells/mL, with 100 µL per well. The test compounds (dissolved in DMSO) were diluted and added to the cell culture medium, resulting in final compound concentrations of 3000, 1000, 300, 100, 10, 3, and 1 nM (with 1% DMSO). The cells and compounds were co-cultivated for 3 hours in a 37°C incubator with 5% CO2. Subsequently, the plate was centrifuged at 2000 g for 20 minutes, and the supernatant was discarded. 100 µL of red blood cell lysis buffer was added to the cell pellet, vortexed for 20 minutes, and centrifuged at 4000 g for 5 minutes. The supernatant was collected for analysis. ii. The reaction system was prepared according to the kit instructions (shown as the table below), 10 µL of the reaction system was added to each well of a 384-well plate, and 10 µL of red blood cell lysis buffer was took and mixed well (20 µL reaction system).
iii. A black, transparent-bottomed 384-well plate was placed in a microplate reader to measure fluorescence at 540/590 nm. The fluorescence was read every 2 minutes for 1 hour.
i. The Slope value was calculated over the assay time. Compound activation percentage was calculated using the 1% DMSO well as the control well. Activation percentage = (Slope of compound well / Slope of control well) × 100% ii. Dose-response curve was fit using the logarithmic compound concentration on the X-axis and the percent activation percentage on the Y-axis, the log(agonist) vs. response - variable slope function in GraphPad Prism 5 was used to determine the AC50 value for each compound on PKR activity. Y = min + (max−min)/(1+10^(∧)((LogAC50−X)×Hillslope)). [formula] The PKR agonist effects of the compound of the present disclosure on ex vivo red blood cells from healthy individuals and thalassemia patients were determined using the above assay. The AC50 values measured on ex vivo red blood cells from healthy individuals are as follows (A represents 0-100 nM, B represents 101-300 nM, and C represents 300-1000 nM): […]

Chain of recombinant human PKR (P30613 whole entry): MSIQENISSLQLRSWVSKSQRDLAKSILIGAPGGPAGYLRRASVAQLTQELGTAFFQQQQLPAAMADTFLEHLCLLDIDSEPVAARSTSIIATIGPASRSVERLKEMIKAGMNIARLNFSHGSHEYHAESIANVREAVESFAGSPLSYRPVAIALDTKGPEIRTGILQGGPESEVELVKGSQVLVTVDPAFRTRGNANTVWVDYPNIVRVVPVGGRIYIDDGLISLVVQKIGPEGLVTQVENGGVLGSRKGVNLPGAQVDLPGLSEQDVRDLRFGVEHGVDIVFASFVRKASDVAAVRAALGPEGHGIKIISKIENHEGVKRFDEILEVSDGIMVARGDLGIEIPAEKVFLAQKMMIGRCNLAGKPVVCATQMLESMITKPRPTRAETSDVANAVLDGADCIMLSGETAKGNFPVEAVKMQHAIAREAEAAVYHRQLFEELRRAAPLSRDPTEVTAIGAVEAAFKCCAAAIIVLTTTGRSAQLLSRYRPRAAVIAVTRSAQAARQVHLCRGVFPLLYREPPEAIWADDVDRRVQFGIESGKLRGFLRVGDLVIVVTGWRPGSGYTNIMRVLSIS
T1 sequence (P30613 whole entry): as above

Row | AC50 [1] | AC50 [2] | SMILES
1 | 0.3 to 1 µM | 0.101 to 0.3 µM | COc1ccc(C(CO)C(=O)N2CC(=C3CN(S(=O)(=O)c4ccccn4)C3)C2)cc1 (stereo not drawn) [Compound 53, 3-hydroxy-2-(4-methoxyphenyl)-1-(1'-(pyridin-2-ylsulfonyl)-1',4'-dihydro-2H,2'H-[3,3'-diazetidinylidene]-1(4H)-yl)propan-1-one]
2 | < 0.1 µM | < 0.1 µM | O=C(N1CC(=C2CN(S(=O)(=O)c3ccc4ncsc4c3)C2)C1)C1(c2ccccc2)CCOCC1 [Compound 29, (1'-(benzo[d]thiazol-6-ylsulfonyl)-1',4'-dihydro-2H,2'H-[3.3'-diazetidinylidene]-1(4H)-yl)(4-phenyltetrahydro-2H-pyran-4-yl)methanone]
3 | < 0.1 µM | 0.101 to 0.3 µM | O=C(C(CO)c1ccc2c(c1)NCCO2)N1CC(=C2CN(S(=O)(=O)c3ccccn3)C2)C1 (stereo not drawn) [Compound 79, 2-(3,4-dihydro-2H-benzo[b][1,4]oxazin-6-yl)-3-hydroxy-1-(1'-(pyridin-2-ylsulfonyl)-1',4'-dihydro-2 H,2'H-[3,3'-diazetidinylidene]-1(4H)-yl)propan-1-one]
4 | 0.3 to 1 µM | 0.3 to 1 µM | O=C(c1c[nH]c2ccccc12)N1CC(=C2CN(S(=O)(=O)c3ccccn3)C2)C1 [Compound 56, (1H-indol-3-yl)(1'-(pyridin-2-ylsulfonyl)-1',4'-dihydro-2H,2'H-[3,3'-diazetidinylidene]-1(4H)-yl)met hanone]
5 | 0.101 to 0.3 µM | 0.101 to 0.3 µM | O=C(N1CC(=C2CN(S(=O)(=O)c3ccc(OC(F)F)cc3)C2)C1)C1(c2ccccc2)CCOCC1 [Compound 14, (1'-((4-(difluoromethoxy)phenyl)sulfonyl)-1',4'-dihydro-2H,2'H-[3,3'-diazetidinylidene]-1(4H)-yl)(4-phenyltetrahydro-2H-pyran-4-yl)methanone]
6 | 0.101 to 0.3 µM | < 0.1 µM | O=C(N1CC(=C2CN(S(=O)(=O)c3ccccn3)C2)C1)C1(c2ccccc2)COC1 [Compound 89, (3-phenyloxetan-3-yl)(1'-(pyridin-2-ylsulfonyl)-1',4'-dihydro-2H,2'H-[3,3'-diazetidinylidene]-1(4H)-yl)methanone]

More lines, now with the values behind:

Row | SMILES | AC50 [1] | AC50 [2]
7 | O=C([C@H](CO)c1ccccc1)N1CC(=C2CN(S(=O)(=O)c3ccc(OC(F)F)cn3)C2)C1 [Compound 80, (S)-1-(1'-((5-(difluoromethoxy)pyridin-2-yl)sulfonyl)-1',4'-dihydro-2H,2'H-[3,3'-diazetidinylidene]-1 (4H)-yl)-3-hydroxy-2-phenylpropan-1-one] | < 0.1 µM | < 0.1 µM
8 | O=C(C(CO)c1ccc(F)cc1)N1CC(=C2CN(S(=O)(=O)c3cnc4c(c3)OCCO4)C2)C1 (stereo not drawn) [Compound 19, 1-(1'-((2,3-dihydro-[1,4]dioxolane[2,3-b]pyridin-7-yl)sulfonyl)-1',4'-dihydro-2H,2'H-[3,3'-diazetidinylidene]-1(4H)-yl)-2-(4-fluorophenyl)-3-hydroxypropan-1-one] | 0.101 to 0.3 µM | 0.3 to 1 µM
9 | O=C(C(CO)c1ccc(F)cc1)N1CC(=C2CN(S(=O)(=O)c3ccc4c(c3)OCCO4)C2)C1 (stereo not drawn) [Compound 18, 1-(1'-((2,3-dihydrobenzo[b][1,4]dioxin-6-yl)sulfonyl)-1',4'-dihydro-2H,2'H-[3,3'-diazetidinylidene]-1 (4H)-yl)-2-(4-fluorophenyl)-3-hydroxypropan-1-one] | < 0.1 µM | < 0.1 µM
10 | Cc1nc2ccc(S(=O)(=O)N3CC(=C4CN(C(=O)[C@H](CO)c5ccccc5)C4)C3)cc2s1 [Compound 35, (S)-3-hydroxy-1-(1'-((2-methylbenzo[d]thiazol-6-yl)sulfonyl)-1',4'-dihydro-2H,2'H-[3,3'-diazetidinylidene]-1(4H)-yl)-2-phenylpropan-1-one] | < 0.1 µM | < 0.1 µM
11 | O=C(C(CO)c1ccccc1)N1CC(=C2CN(S(=O)(=O)c3ccc(OC(F)F)cc3)C2)C1 (stereo not drawn) [Compound 6, 1-(1'-((4-(difluoromethoxy)phenyl)sulfonyl)-1',4'-dihydro-2H,2'H-[3,3'-diazetidinylidene]-1(4H)-yl)-3-hydroxy-2-phenylpropan-1-one] | < 0.1 µM | 0.101 to 0.3 µM
12 | O=C(Cc1ccccc1)N1CC(=C2CN(S(=O)(=O)c3ccc4ncsc4c3)C2)C1 [Compound 47, 1-(1'-(benzo[d]thiazol-6-ylsulfonyl)-1',4'-dihydro-2H,2'H-[3,3'-diazetidinylidene]-1(4H)-yl)-2-phenyl ethan-1-one] | 0.3 to 1 µM | 0.3 to 1 µM
13 | NC(C(=O)N1CC(=C2CN(S(=O)(=O)c3ccc(OC(F)F)cc3)C2)C1)c1ccccc1 (stereo not drawn) [Compound 21, 2-amino-1-(1'-((4-(difluoromethoxy)phenyl)sulfonyl)-1',4'-dihydro-2H,2'H-[3,3'-diazetidinylidene]-1 (4H)-yl)-2-phenylethan-1-one] | 0.3 to 1 µM | < 0.1 µM
14 | O=C([C@H](CO)c1ccccc1)N1CC(=C2CN(S(=O)(=O)c3ccc(-c4ncco4)c(F)c3)C2)C1 [Compound 27, (S)-1-(1'-((3-fluoro-4-(oxazol-2-yl)phenyl)sulfonyl)-1',4'-dihydro-2H,2'H-[3,3'-diazetidinylidene]-1(4 H)-yl)-3-hydroxy-2-phenylpropan-1-one] | 0.3 to 1 µM | 0.3 to 1 µM
15 | O=C(c1c[nH]c2ccccc12)N1CC(=C2CN(S(=O)(=O)c3ccc4ncsc4c3)C2)C1 [Compound 52, (1'-(benzo[d]thiazol-6-ylsulfonyl)-1',4'-dihydro-2H,2'H-[3,3'-diazetidinylidene]-1(4H)-yl)(1H-indol-3-yl)methanone] | 0.3 to 1 µM | 0.3 to 1 µM
16 | O=C(C(CO)c1ccc(F)cc1)N1CC(=C2CN(S(=O)(=O)c3ccc4ncsc4c3)C2)C1 [Compound 50, (S)-1-(1'-(benzo[d]thiazol-6-ylsulfonyl)-1',4'-dihydro-2H,2'H-[3,3'-diazetidinylidene]-1(4H)-yl)-2-(4-fluorophenyl)-3-hydroxypropan-1-one] | < 0.1 µM | < 0.1 µM
17 | O=C(C(CO)c1ccc(F)cc1F)N1CC(=C2CN(S(=O)(=O)c3ccccn3)C2)C1 (stereo not drawn) [Compound 74, 2-(2,4-difluorophenyl)-3-hydroxy-1-(1'-(pyridin-2-ylsulfonyl)-1',4'-dihydro-2H,2'H-[3,3'-diazetidinylidene]-1(4H)-yl)propan-1-one] | < 0.1 µM | < 0.1 µM
18 | CCOc1ccc(S(=O)(=O)N2CC(=C3CN(C(=O)[C@H](CO)c4ccccc4)C3)C2)nc1 [Compound 72, (S)-1-(1'-((5-ethoxypyridin-2-yl)sulfonyl)-1',4'-dihydro-2H,2'H-[3,3'-diazetidinylidene]-1(4H)-yl)-3-hydroxy-2-phenylpropan-1-one] | < 0.1 µM | < 0.1 µM
